One experiment deals with T1, FLT3 (Homo sapiens, UniProt P36888).
T1 construct: purchased Life Technologies PV3182
T1 sequence (P36888 564-993 limits assumed): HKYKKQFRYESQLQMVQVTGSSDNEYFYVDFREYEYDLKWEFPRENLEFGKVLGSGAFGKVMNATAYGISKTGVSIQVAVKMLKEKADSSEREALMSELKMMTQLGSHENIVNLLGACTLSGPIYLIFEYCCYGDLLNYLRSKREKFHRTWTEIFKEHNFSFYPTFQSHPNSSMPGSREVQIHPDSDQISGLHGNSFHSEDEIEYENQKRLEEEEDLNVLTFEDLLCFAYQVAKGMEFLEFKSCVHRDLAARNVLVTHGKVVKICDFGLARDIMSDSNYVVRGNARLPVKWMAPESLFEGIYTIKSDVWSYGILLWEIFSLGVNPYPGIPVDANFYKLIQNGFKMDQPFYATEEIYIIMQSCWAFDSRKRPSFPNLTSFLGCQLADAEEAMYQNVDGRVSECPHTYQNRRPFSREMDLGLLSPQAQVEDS
As to the kind of experiment: LanthaScreen TR-FRET binding test, FLT3. As to conditions: recombinant FLT3 15 nM, kinase tracer 236 3 nM, 25° C., 1 hour; read-out: Inhibition (IC50) of FLT3 enzyme. On the procedure:
(§1) FLT3 (#PV3182), JAK2 (#PV4210) and JAK3 (#PV3855) recombinant enzymes were purchased from Life Technologies. FLT3-ITD (#0778-0000-1) and FLT3^D835Y (#14-610) proteins were purchased from ProQinase and Merck Millipore, respectively. All the tests were carried out in 384-well plates. The principle of these binding tests is based on the LanthaScreen® TR-FRET methodology from Life Technologies.
The reaction mixture (15 μL total volume) contains the following compounds: 15 nM FLT3, FLT3-ITD or FLT3^D835Y, 3 nM kinase tracer 236 (Life Technologies, #PV5592) and 6 nM LanthaScreen® anti-GST antibody coupled to a europium chelate (Life Technologies, #PV5594) for FLT3-ITD and FLT3^D835Y or 6 nM LanthaScreen® anti-His antibody coupled to a europium chelate (Life Technologies, #PV5596) for FLT3.
(§2) The compounds are evaluated at 8 different concentrations prepared by making dilutions from a starting 10 mM stock solution in dimethylsulfoxide (DMSO) (Sigma, #D8418). The final DMSO concentration in the test is 1%. The reaction is carried out at 25° C. for 1 hour and detected on the EnVision® reader (Perkin Elmer) according to the recommendations of the supplier, Life Technologies.
(§3) The results are presented (Table 1) as the concentration values of the compound at which 50% of the kinase activity is inhibited, IC50 (μM), generated using the PRISM software (GraphPad).

The target of a further experiment is T2, JAK3 (Homo sapiens, UniProt P52333).
T2 construct: purchased Life Technologies PV3855
T2 sequence (P52333 1-1124): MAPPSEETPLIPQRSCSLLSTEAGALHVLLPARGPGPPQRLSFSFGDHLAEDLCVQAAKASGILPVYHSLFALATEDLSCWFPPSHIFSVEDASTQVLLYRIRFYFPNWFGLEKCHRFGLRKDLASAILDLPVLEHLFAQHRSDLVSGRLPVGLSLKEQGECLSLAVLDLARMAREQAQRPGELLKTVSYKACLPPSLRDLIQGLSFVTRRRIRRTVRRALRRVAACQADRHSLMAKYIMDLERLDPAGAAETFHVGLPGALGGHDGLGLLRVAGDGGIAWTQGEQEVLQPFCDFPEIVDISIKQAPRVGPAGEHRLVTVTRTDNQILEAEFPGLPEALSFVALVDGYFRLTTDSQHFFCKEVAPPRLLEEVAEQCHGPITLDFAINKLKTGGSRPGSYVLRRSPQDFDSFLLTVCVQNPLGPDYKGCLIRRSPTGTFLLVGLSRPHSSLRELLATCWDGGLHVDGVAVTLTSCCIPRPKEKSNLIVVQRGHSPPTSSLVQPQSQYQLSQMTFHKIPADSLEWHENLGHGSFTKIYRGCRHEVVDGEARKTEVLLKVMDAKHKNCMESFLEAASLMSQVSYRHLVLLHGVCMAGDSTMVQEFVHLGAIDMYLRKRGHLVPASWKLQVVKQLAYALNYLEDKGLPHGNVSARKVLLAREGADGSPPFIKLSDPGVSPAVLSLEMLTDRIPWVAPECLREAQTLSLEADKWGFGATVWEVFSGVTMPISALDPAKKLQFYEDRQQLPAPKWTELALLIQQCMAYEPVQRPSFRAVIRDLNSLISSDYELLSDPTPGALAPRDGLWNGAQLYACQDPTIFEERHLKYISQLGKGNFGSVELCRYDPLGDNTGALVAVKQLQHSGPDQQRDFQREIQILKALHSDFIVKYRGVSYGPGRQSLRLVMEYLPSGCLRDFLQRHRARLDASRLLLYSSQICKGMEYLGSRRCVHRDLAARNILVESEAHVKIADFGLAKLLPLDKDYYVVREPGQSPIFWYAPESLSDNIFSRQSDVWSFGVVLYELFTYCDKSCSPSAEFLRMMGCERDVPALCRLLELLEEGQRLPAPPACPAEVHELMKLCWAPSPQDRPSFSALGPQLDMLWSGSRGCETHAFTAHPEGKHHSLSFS
The experiment is described as follows: LanthaScreen TR-FRET binding test, JAK3. As to conditions: recombinant JAK3 15 nM, kinase tracer 236 3 nM, 25° C., 1 hour; read-out: Inhibition (IC50) of JAK3 enzyme. The method, then:
as §1
The reaction mixture (15 μL total volume) contains the following compounds: 15 nM JAK2 or JAK3, 150 nM kinase tracer 236 (Life Technologies, #PV5592) for JAK2 or 3 nM for JAK3 and 6 nM LanthaScreen® anti-GST antibody coupled to a europium chelate (Life Technologies, #PV5594) for both enzymes.
as §2, §3

Another experiment deals with MV4-11 cell line. The experiment is described as follows: Antiproliferative activity (ATPLite cell viability), MV4-11. The following applies: Homo sapiens, MV4-11 (acute myeloid leukemia, FLT3-ITD), 72 h incubation, read-out: Cytotoxicity (EC50) on MV411 cell line. The class given is cell-based. On the procedure:
The characteristics of the cell lines used are as follows (Table 2):
MV4-11 and MOLM-13 cell lines are cultured in the culture medium specified in Table 2 above and according to the supplier's recommendations. The tests are carried out in 96-well plates. The cells are divided in two at D0. At D1, they are seeded and treated with the compounds at various concentrations and incubated for 72 h at 37° C. and 5% CO2. The dilution of the compounds from stock solutions in DMSO (Sigma, #D8418) was made semi-logarithmically for a final concentration in the culture medium of 0.1%. At day 4, cell viability is evaluated by assaying the ATP released by the living cells using the ATPLite® kit (Perkin Elmer, #6016947). The EC50 values (concentration of the compound necessary to obtain 50% of the maximum effect) are calculated using curve-fitting software.

Data on 12 compounds can be found in patent publication US10323043B2, “Derivatives of macrocyclic N-aryl-tricyclopyrimidine-2-amine polyethers as inhibitors of FTL3 and JAK” (PIERRE FABRE MEDICAMENT, priority 2014, dated 2019).

As a reminder, the IC50 is the concentration at which inhibition is half-maximal. One may read the EC50 as the concentration needed to bring the measured effect to its halfway point.

`CN1CCN(c2ccc3cc2OCCOCCOc2ccc4c(c2)-c2nc(ncc2CC4)N3)CC1` [Compound 3]: the IC50 on FLT3 came to 2.5 nM; on JAK3 it was 54 nM. In addition, in the experiment with MV4-11 cell line, the EC50 came to 2.8 nM.
Consider `c1cc(N2CCNCC2)c2cc1Nc1ncc3c(n1)-c1cc(ccc1CC3)OCCOCCO2` [Compound 5], for which the IC50 on FLT3 came out at 4.4 nM; at JAK3, 30 nM. In the experiment on MV4-11 cell line, the EC50 amounted to 7.2 nM.
Taken in the same sequence, the figures for `c1cc(N2CCC(N3CCOCC3)C2)c2cc1Nc1ncc3c(n1)-c1cc(ccc1CC3)OCCOCCO2` (stereo not drawn) [Compound 7] were 18 nM, 120 nM and 40 nM.
Taken in the same sequence, the figures for `c1cc(N2CCC(N3CCCCC3)CC2)c2cc1Nc1ncc3c(n1)-c1cc(ccc1CC3)OCCOCCO2` [Compound 10] were 6 nM, 60 nM and 6.5 nM.
Taken in the same sequence, the figures for `c1cc(OCCN2CCCC2)c2cc1Nc1ncc3c(n1)-c1cc(ccc1CC3)OCCOCCO2` [Compound 14] were 7 nM, 70 nM and 9.2 nM.
On to `OC1CCN(c2ccc3cc2OCCOCCOc2ccc4c(c2)-c2nc(ncc2CC4)N3)CC1` [Compound 19], for which the IC50 is 3.6 nM on FLT3 and 30 nM at JAK3. For the same compound, the EC50 in the experiment with MV4-11 cell line is 12 nM.
As to `CN1CC=C(c2ccc3cc2OCCOCCOc2ccc4c(c2)-c2nc(ncc2CC4)N3)CC1` [Compound 23], the 50% inhibitory concentration (IC50) on FLT3 came out at 4.5 nM; at JAK3, 110 nM. Also, the EC50 in the experiment with MV4-11 cell line is 20 nM.
The corresponding values for `c1cc(N2CC3CNCC3C2)c2cc1Nc1ncc3c(n1)-c1cc(ccc1CC3)OCCOCCO2` (stereo not drawn) [Compound 29] are 3.7 nM, 18 nM and 7.6 nM.
Consider `CN(C)C1CCN(c2ccc3cc2OCCOCCOc2ccc4c(c2)-c2nc(ncc2CC4)N3)C1` (stereo not drawn) [Compound 30], for which the IC50 on FLT3 was 3.2 nM; on JAK3, 18 nM. Further, in the experiment on MV4-11 cell line, the EC50 turned out to be 12 nM.
The corresponding values for `CN1CCN(c2ccc3cc2OCCOCCOc2ccc4c(c2)-c2nc(ncc2CC4)N3)CC1(C)C` [Compound 40] are 1.9 nM, 17.6 nM and 21 nM.
Taken in the same sequence, the figures for `c1cc(N2CC3CCC(C2)N3)c2cc1Nc1ncc3c(n1)-c1cc(ccc1CC3)OCCOCCO2` [Compound 42] were 3.2 nM, 13 nM and 3 nM.
The corresponding values for `c1cc(N2C[C@H]3C[C@@H]2CN3)c2cc1Nc1ncc3c(n1)-c1cc(ccc1CC3)OCCOCCO2` [Compound 44] are 5.2 nM, 35 nM and 10 nM.
